Source: PubChem BioAssay AID687029 (Broad Institute, 2013)

Each compound was assayed on RMG-1 viability, CellTiterGlo ATP luminescence, 96 h (assay: cytotoxicity in PAX8-dependent RMG-1 cells, dose response, cell-based, cherry-pick (AID 687029)).

`CC(C)(C)[C@H](N)C(=O)N[C@H]1CCC2C3CC=C4C[C@@H](O)CC[C@]4(C)C3CC[C@@]21C` (stereo not given in full) and `CCCCN=C[C@]12CCC(O)CC1(O)CCC1[C@@H]2CC[C@]2(C)[C@H](C3C=CC(=O)O3)CCC12O` (stereo not given in full) cannot be ordered by AC50: < 260 nM for the first, < 260 nM for the second.

First: C[C@H](O)[C@@H]1CN2CCc3c([nH]c4ccc(-c5ccc6c(c5)OCO6)cc34)[C@@H]2C[C@@H]1N(C)C(=O)NC1CCCCC1
Second: O=C(NC1CCCCC1)C(c1cccnc1)N(C(=O)CCl)c1ccc(F)cc1 (stereo not given)
The AC50 of the first is lower: < 260 nM for the first, 9950 nM for the second.

`COc1cc(-c2cnc3c(NC=O)cc(-c4ccccc4)cn23)cc(OC)c1OC` and `COc1ccc(F)cc1-c1cc(NC=O)c2ncc(-c3cc(OC)c(OC)c(OC)c3)n2c1` cannot be ordered by AC50: < 260 nM for the first, < 260 nM for the second.

`CCOc1ccc2nc(N/C(N)=N/C(=S)Nc3ccc(C)c(C)c3)nc(C)c2c1` and `COc1ccc(C2=NNC(=Nc3cc(S(=O)(=O)N(C)C)ccc3C)SC2)c(OC)c1` cannot be ordered by AC50: < 260 nM for the first, < 260 nM for the second.

Compared with `Cc1cc(C(C)(C)C)cc(C)c1Cn1c2[n+](c3ccc(C(F)(F)F)cc31)CCCCC2`, `COc1ccc(S(=O)(=O)Nc2ccc3c(c2)C(=O)N([C@@H](C)CO)C[C@H](C)[C@@H](CN(C)Cc2ccc(C(F)(F)F)cc2)OCCCC[C@H](C)O3)cc1` is higher in AC50: < 260 nM for the first, 372 nM for the second.

`O=C(Nc1ccc(N2CCN(C(=O)c3ccccc3)CC2)cc1)c1ccc([N+](=O)[O-])o1` and `COc1cccc(N2CCN(C(=O)c3ccc(CS(=O)c4ccccc4Cl)o3)CC2)c1` (stereo not given) cannot be ordered by AC50: < 260 nM for the first, < 260 nM for the second.

First: C[C@@H]1CCCCO[C@@H](CN(C)S(=O)(=O)c2ccc(Cl)cc2)[C@H](C)CN([C@H](C)CO)C(=O)c2cc(NS(=O)(=O)c3ccc(F)cc3)ccc2O1
Second: C[C@H](CO)N1C[C@H](C)[C@@H](CN(C)S(=O)(=O)c2ccc(Cl)cc2)OCCCC[C@H](C)Oc2ccc(NS(=O)(=O)c3ccc(Cl)cc3)cc2C1=O
The AC50 of the first is higher: 1720 nM for the first, < 260 nM for the second.

`COCCn1c(C)cc(C2=NNC(=NC3CC3)SC2)c1C` and `c1cc2c(cc1C1=NNC(=NC3CC3)SC1)OCCO2` cannot be ordered by AC50: < 260 nM for the first, < 260 nM for the second.

Compared with `COc1ccc(CCNc2nnc(Sc3nnnn3-c3ccccc3)s2)cc1OC`, `COc1ccc(N2C(=O)CC(Sc3nnc(-c4ccccc4)o3)C2=O)cc1` (stereo not given) is lower in AC50: 13000 nM for the first, < 260 nM for the second.

`CCCC(=O)NC(c1ccc(C(C)C)cc1)c1ccc2cccnc2c1O` (stereo not given) and `CCCC(=O)NC1=C(Cl)C(=O)c2ccccc2C1=O` cannot be ordered by AC50: < 260 nM for the first, < 260 nM for the second.

Compared with `C[C@H]1CCCCO[C@H](CN(C)Cc2ccc(C(F)(F)F)cc2)[C@@H](C)CN([C@@H](C)CO)C(=O)c2cc(NS(=O)(=O)c3ccc(Cl)cc3)ccc2O1`, `C[C@H](CO)N1C[C@H](C)[C@H](CN(C)Cc2ccc(C(F)(F)F)cc2)OCCCC[C@H](C)Oc2ccc(NS(=O)(=O)c3ccccc3)cc2C1=O` is higher in AC50: < 260 nM for the first, 927 nM for the second.

`C=C(C)c1nc(Oc2ccccc2)nc(Oc2ccccc2)n1` and `Oc1cccc2cc(Nc3ccccc3)cnc12` cannot be ordered by AC50: < 260 nM for the first, < 260 nM for the second.

`O=C(CN1C(=O)c2ccccc2S1(=O)=O)c1ccc2c(c1)OCCO2` and `Cc1cc(Nc2ccc3c(c2)OCCO3)c2ccccc2n1` cannot be ordered by AC50: < 260 nM for the first, < 260 nM for the second.

First: Cc1cc(C)c2c(N)c(C(=O)Nc3ncc(C)s3)sc2n1
Second: COc1ccc(-n2nc3c(N4CCC(C(=O)NCc5cccc(C)c5)CC4)nnc(C)c3c2C)cc1
The AC50 of the first is higher: 1010 nM for the first, < 260 nM for the second.

`C[C@@H]1CN([C@H](C)CO)C(=O)c2cc(NS(=O)(=O)c3ccc(Cl)cc3)ccc2O[C@@H](C)CCCCO[C@@H]1CN(C)Cc1ccccc1` and `C[C@@H]1CCCCO[C@@H](CN(C)C(=O)Nc2cccc3ccccc23)[C@H](C)CN([C@H](C)CO)C(=O)c2cc(NS(=O)(=O)c3ccc(F)cc3)ccc2O1` cannot be ordered by AC50: < 260 nM for the first, < 260 nM for the second.

Going from `CCOc1ccc(NC(=O)Nc2cc(OCC(F)(F)F)cc(OCC(F)(F)F)c2)cc1` to `O=C(Nc1ccc(OCC(F)(F)C(F)F)c(C(F)(F)F)c1)c1ccccc1O`, the AC50 falls from 9370 nM to < 260 nM.

Compared with `CSC(=Nc1ccccc1)N=C(SCc1ccccc1)N(C)C`, `O=C(Nc1ccccc1)NN(C(=O)CCl)c1ccccc1` is higher in AC50: < 260 nM for the first, 12400 nM for the second.

`O=C1CN(C(=O)Cn2ncc(Cl)c(Cl)c2=O)c2ccccc2N1` and `Cc1ccc(NC(=O)Cn2ncc(Cl)c(Cl)c2=O)cc1S(=O)(=O)N1CCCCC1` cannot be ordered by AC50: < 260 nM for the first, < 260 nM for the second.

`C[C@@H]1CN([C@H](C)CO)S(=O)(=O)c2ccc(C#CC3CCCC3)cc2O[C@@H]1CN(C)C(=O)Cc1ccncc1` and `C[C@@H]1CCCCO[C@H](CN(C)Cc2ccc(C(F)(F)F)cc2)[C@H](C)CN([C@H](C)CO)C(=O)c2cc(NS(=O)(=O)c3cccs3)ccc2O1` cannot be ordered by AC50: < 260 nM for the first, < 260 nM for the second.

`Nc1nc(=S)c2[nH]cnc2[nH]1` and `S=c1sc2c(Cl)ncnc2n1-c1ccccc1` cannot be ordered by AC50: < 260 nM for the first, < 260 nM for the second.

`O=C(C(=O)N(Cc1ccccc1)Cc1ccccc1)c1c(-c2ccccc2)[nH]c2ccccc12` and `C=C(C(=O)c1ccccc1)C(C(=C)C(=O)c1ccccc1)c1ccc(OC)cc1` cannot be ordered by AC50: < 260 nM for the first, < 260 nM for the second.

`CN1c2ccccc2N(C)C1(C)c1ccccc1` and `O=[N+]([O-])c1cccnc1S(=O)(=O)c1ccccc1` cannot be ordered by AC50: < 260 nM for the first, < 260 nM for the second.

`Cc1nc(Nc2nc(CSc3nc4ccccc4[nH]3)cc(=O)[nH]2)nc2ccccc12` and `O=C(CSc1ncccc1-c1nc2ccccc2[nH]1)N1CCc2ccccc21` cannot be ordered by AC50: < 260 nM for the first, < 260 nM for the second.

First: C=C1C(=O)C2=CC1CCC(=O)C1(C)CCC(OC(C)=O)C(C)(C)C1CC2O (stereo not given)
Second: CCC(C)(O)C(=O)OC1C(=O)OC2CC3C(C)=CC(=O)C(O)C3(C)C3C4(O)OCC23C1C(C)C4O (stereo not given)
The AC50 of the first is lower: < 260 nM for the first, 19700 nM for the second.

`C#CCN(C[C@@H]1[C@@H](OC(=O)NCC2CCCCC2)[C@@H](OC(=O)NCC2CCCCC2)Cn2c(=O)ccc(=O)n21)S(=O)(=O)c1ccc(C)cc1` and `Cc1ccc(S(=O)(=O)CC(CN2CCCCC2)N2CCCCC2)cc1` (stereo not given) cannot be ordered by AC50: < 260 nM for the first, < 260 nM for the second.

Going from `COc1cc(C2C3=C(COC3=O)Oc3cc4c(cc32)OCO4)cc(OC)c1O` (stereo not given) to `COc1cc(OC)c2c(-c3cccc(-c4ccc(OC)c(F)c4)c3)cc(=O)oc2c1`, the AC50 rises from < 260 nM to 11400 nM.

Compared with `Cc1ccc2c(c1)c1c3n2CCN(CC(N)=O)C3CCC1` (stereo not given), `Cc1ccc(Cl)cc1N1CCN(C(=O)c2noc(C)c2[N+](=O)[O-])CC1` is lower in AC50: 12300 nM for the first, < 260 nM for the second.

Going from `O=C(CCC(=O)c1ccccc1)NCCc1c[nH]c2ccccc12` to `CN1c2ccc(-c3cccc(F)c3)cc2[C@@H]2[C@@H](CCN2C(=O)Cc2ccccc2)[C@@H]1CO`, the AC50 rises from < 260 nM to 479 nM.

Going from `Cc1ccc(S(=O)(=O)Nc2ccc3c(c2)CC(=O)N([C@H](C)CO)C[C@H](C)[C@H](CN(C)S(=O)(=O)c2ccc(F)cc2)O3)cc1` to `C[C@@H]1CN([C@@H](C)CO)C(=O)Cc2cc(NS(=O)(=O)c3ccc(Cl)cc3)ccc2O[C@H]1CN(C)Cc1ccc(Oc2ccccc2)cc1`, the AC50 falls from 4300 nM to < 260 nM.

`C[C@@H]1CCCCO[C@@H](CN(C)C(=O)Nc2cccc3ccccc23)[C@H](C)CN([C@H](C)CO)C(=O)c2cc(NS(=O)(=O)c3ccccc3)ccc2O1` and `Cn1c(CCN2CCCC2)nc2cc(NS(=O)(=O)c3ccccc3)ccc21` cannot be ordered by AC50: < 260 nM for the first, < 260 nM for the second.

`Cc1ccc(-c2csc3ncnc(Sc4nnc(CN5CCCCCC5=O)o4)c23)cc1` and `Cn1nnnc1Sc1ncnc2scc(-c3cccc(S(C)(=O)=O)c3)c12` are within 1.5-fold of each other in AC50: 10800 nM for the first, 10200 nM for the second.

`O=C(Nc1cccc(Cl)c1)Nc1nnc(-c2ccncc2)s1` and `OCCCNc1nccc(-c2cc(Nc3cccc(Cl)c3)ncn2)n1` cannot be ordered by AC50: < 260 nM for the first, < 260 nM for the second.

`Cc1nc2sc(C(c3ccco3)N3CCN(C(c4ccccc4)c4ccccc4)CC3)c(O)n2n1` (stereo not given) and `Cc1ccccc1CNC(=O)C1CCCN(c2nnc(C)c3c(C)n(-c4ccccc4)nc23)C1` (stereo not given) cannot be ordered by AC50: < 260 nM for the first, < 260 nM for the second.

Compared with `O=C(NCc1ccco1)C1CCCN(S(=O)(=O)c2ccc(Br)cc2)C1` (stereo not given), `COc1ccc(C)cc1NS(=O)(=O)c1ccc(-c2cnc(C3CC3)o2)cc1` is higher in AC50: < 260 nM for the first, 376 nM for the second.

`FC(F)(F)c1nnc2c(Sc3ccccn3)nc3ccccc3n12` and `C(=Cc1cnc2ccccc2n1)c1ccc2c(c1)OCO2` are within 1.5-fold of each other in AC50: 14200 nM for the first, 12900 nM for the second.

`O=C(Nc1cccc(-c2ccc(N3CCCCC3)nn2)c1)C(F)(F)F` and `C=C(C)c1cccc(C(C)(C)NC(=O)N2CCN(c3ccccc3OC)CC2)c1` cannot be ordered by AC50: < 260 nM for the first, < 260 nM for the second.

`CC(C)c1cc(C(=O)OCC(=O)N2CCN(C(=O)c3ccco3)CC2)c(O)c(C(C)C)c1` and `COc1cc(OC)cc(C(=O)NCC(=O)OCC(=O)c2cc(C)n(Cc3ccco3)c2C)c1` cannot be ordered by AC50: < 260 nM for the first, < 260 nM for the second.

`CCN(CC)S(=O)(=O)c1cc(NC(=O)Cn2ncc(Cl)c(Cl)c2=O)ccc1C` and `Cc1ccc(NC(=O)CN(C)C(=O)Cn2ncc(Cl)c(Cl)c2=O)cc1` cannot be ordered by AC50: < 260 nM for the first, < 260 nM for the second.

`O=C1c2cccc3cc([N+](=O)[O-])cc(c23)C(=O)N1CCN1CCCC1` and `CCOC(=O)c1c(C)[nH]c2c1-c1ccccc1C(=O)C2=O` cannot be ordered by AC50: < 260 nM for the first, < 260 nM for the second.

`O=c1[nH]c2ccccc2n1C1CCN(C(c2cccs2)c2nnnn2-c2ccc3c(c2)OCCO3)CC1` (stereo not given) and `Brc1ccc(-n2cc(-c3ccccc3)c3c(NN4CCOCC4)ncnc32)cc1` cannot be ordered by AC50: < 260 nM for the first, < 260 nM for the second.

`COc1ccc(C(=O)NC(=S)NNC(=O)c2c(-c3ccccc3)noc2C)cc1` and `COc1ccc(NC(=O)c2c(Nc3ccccc3)sc(C(=O)c3ccc(F)cc3)c2N)cc1` cannot be ordered by AC50: < 260 nM for the first, < 1000 nM for the second.

`O=S(=O)(NCC1CCCO1)c1cnc(Cl)c(Br)c1` (stereo not given) and `COc1ccc2c(COC(=O)CNC(=O)C34CC5CC(CC(C5)C3)C4)cc(=O)oc2c1` cannot be ordered by AC50: < 260 nM for the first, < 260 nM for the second.

`C[C@]12CC[C@H]3[C@@H](CC[C@]4(O)C[C@@H](O)CC[C@]34C=O)[C@@]1(O)CC[C@@H]2C1=CC(=O)OC1` and `C[C@]12CCC3C(CCC4=CC(O)CC[C@@]43/C=N/O)C1(O)CCC2C1=CC(=O)OC1` (stereo not given in full) cannot be ordered by AC50: < 260 nM for the first, < 260 nM for the second.

`COc1ccc(C(=O)c2ccc(Cl)c([N+](=O)[O-])c2)cc1` and `COc1ccc(/C=N/NC(=O)c2[nH]c3ccc(Br)cc3c2-c2ccccc2)cc1` cannot be ordered by AC50: < 260 nM for the first, < 260 nM for the second.

`CCOC(=O)Nc1ccc2c(c1)N(C(=O)CCN(CC)CC)c1ccccc1S2=O` (stereo not given) and `CCOc1ccc(C(=O)C(CCC(CN(C)C)C(=O)c2ccc(OCC)cc2)CN(C)C)cc1` (stereo not given) cannot be ordered by AC50: < 260 nM for the first, < 260 nM for the second.

`CCc1cc(-c2n[nH]c(C)c2-c2nc3ccccc3n2C)c(O)cc1O` and `CN(C(=O)OC(C)(C)C)c1ccc(-c2nc3ccccc3s2)cc1` cannot be ordered by AC50: < 260 nM for the first, < 260 nM for the second.

Going from `CC(=O)[C@@]1(O)Cc2c(O)c3c(c(O)c2[C@H](O[C@H]2C[C@H](N)[C@H](O)[C@H](C)O2)C1)C(=O)c1ccccc1C3=O` to `COc1cc2nc(C3CCC3)nc(N3CCN(c4ccccc4OC)CC3)c2cc1OC`, the AC50 falls from 9480 nM to < 260 nM.

`Cc1cc(CN(C)C(=O)c2cc(COc3ccc4ncccc4c3)on2)on1` was tested, and the AC50 was < 260 nM.
